Entries after “also recorded” stand apart in the source; their conditions may differ.
Legend:
[1] = tested on: strain CFT073 adhesion to HTB-9 cells; test: Bacterial adhesion assay on bladder cell monolayers; format: cell-based, Escherichia coli / human; conditions: for efficiency at reducing FimH-mediated bacterial adherence (result in words): 500 μM, HTB-9 cells, CFT073
Description: To evaluate the efficacy of the synthetic mannoside antagonists to inhibit the ability of CFT073 strain to adhere to epithelial cells, an in vitro adhesion assay was performed. For this purpose, equal amounts of strain CFT073 strain were inoculated in PBS supplemented with different concentrations of each mannoside at final concentrations of 100, 500 μM, and 1 mM and incubated for 3h under static conditions. Bacterial inoculation was used to infect cell line 5637 (HTB-9 cell) monolayers at a multiplicity of infection (MOI) of 10. At 2.5 h post-infection, the number of cell-associated bacteria was calculated by CFU/mL counting (Figure 9). No significant inhibition of bacterial adhesion to bladder cells was obtained using mannoside inhibitors at 100 µM. Conversely, a significant reduction (more than 1 log) in the number of adherent bacteria was observed by increasing the concentration of the mannosides to 500 μM in comparison to non-treated bacteria (Figure 10). The same extent of reduction in bacterial adhesion to bladder cells was obtained by increasing mannosides concentration to 1 mM, thereby showing a dose-dependent effect. […] To appraise qualitatively the reduction of bacterial adhesion, parallel infected cells were fixed, and Giemsa stained.
HTB-9 cells were routinely seeded in cell culture plates and maintained 2–4 days at 37 °C in a humidified atmosphere containing 5% CO2. For the adhesion assay, cells were seeded in 35 mm tissue culture plates at a density of 1 × 10^5 cells/well and incubated at 37 °C for 48 h to reach confluency. CFT073 was grown in LB under mild shaking conditions overnight and resuspended in phosphate buffer (PBS) to an inoculum of ~10^6 CFU/mL (normalized according to OD600). Each mannoside molecule was added to CFT073 inoculant at the final concentrations of 100, 500 μM and 1 mM and incubated for 3 h in static conditions. […] Images were recorded with a Leica DM5000B microscope equipped with DFX340/DFX300 camera and processed using the Leica Application Suite 2.7.0.R1 software (Leica).

[2] = biological target: T1, FimH lectin domain (amino acids 1-158) (Escherichia coli, UniProt P08191); test: biochemical; format: binding, E. coli; conditions: for IC50: IC50, competitive inhibition of biotinylated Man-BSA binding to coated FimH lectin; for RIP (relative inhibitory potency): relative to reference MeMan, 23
T1 construct: using a FimH lectin domain (amino acids 1-158) LEctPROFILE kit (provided by GLYcoDiag); purchased GLYcoDiag (Orléans, France)
T1 sequence (P08191 22-179): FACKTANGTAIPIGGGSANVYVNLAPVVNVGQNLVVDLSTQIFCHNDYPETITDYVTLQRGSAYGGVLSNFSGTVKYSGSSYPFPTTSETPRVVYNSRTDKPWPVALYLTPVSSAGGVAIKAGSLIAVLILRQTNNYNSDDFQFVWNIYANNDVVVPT
Description: To measure the relative binding affinity of the newly synthesized compounds 11, 20, and 18 against FimH, the usual referenced standards were used for comparison with previously published data: heptyl α-D-mannopyranoside (HepMan, 21), para-nitrophenyl α-D-mannopyranoside (PNPMan, 22), and methyl α-D-mannopyranoside (MeMan, 23). The relative inhibitory potential of the above compounds was determined against a biotinylated Man-BSA conjugate using a FimH lectin domain (amino acids 1-158) LEctPROFILE kit (provided by GLYcoDiag) (Figure 1, Table 1).
FimH LEctPROFILE kit assays from GLYcoDiag (Orléans, France) were performed according to GlycoDiag’s protocol already described. Briefly, the interaction profiles of each compound were determined through a competitive inhibition assay based on the inhibition by the compounds of the interaction between FimH lectin coated onto the microplate surface and a biotinylated neoglycoprotein NeoM (Man-BSA) as a tracer. A mix of biotinylated Man-BSA (fixed concentration) and the corresponding compounds (range of concentrations) prepared in PBS supplemented with 1 mM CaCl2 and 0.5 mM MgCl2 was deposited in each well (50 µL each) in triplicate and incubated for two hours at room temperature. After washing with PBS buffer, the conjugate streptavidin-DTAF (dichlorotriazinylamino fluorescein) was added (50 µL) and incubated 30 min more. The plate was washed again with PBS. Finally, 100 µL of PBS was added for the readout of fluorescent plate performed with a fluorescence reader (Pherastar microplate reader, BMG labtech, λex = 485 nm, λem = 530 nm). The signal intensity is inversely correlated with the capacity of the compound to be recognized by the lectin and expressed as inhibition percentage with comparison with the corresponding tracer alone. Data analysis was performed with GraphPadPrism software (version 5.03 for windows, San Diego, CA, USA). 50% inhibitory concentration (IC50) was determined according to a standard dose-response/inhibition fitting model with the following equation: y = 100 / (1 + [inhibitor]/IC50) and expressed in nanomolar units.

E. coli FimH = tested on: E. coli FimH; design: method as in PMID 28671638; conditions: unit inferred; previous work; cited from earlier work
UPEC strain CFT073 = test: Mannosides as carbon source, CFU/mL counting in PBS; format: cell-based, Escherichia coli; conditions: 24 h, 37 °C, 500 μM (D-mannose also 83 mM)
Description: To test whether the above mannoside derivatives could exert bactericidal and/or cytotoxic activities, bacterial growth and cell viability assays were undertaken in the presence of each mannoside at different concentrations. Natural D-mannose (D-Man) was included as control. […] Moreover, no cytotoxic effect was recorded for urinary bladder cell line 5637 (HTB-9 cell) monolayers, as measured by the MTT test (Figure 6). Since D-mannose can serve as nutrient replacement for E. coli when there is a shortage of D-glucose, we tested whether these new derivatives could be used as carbon sources as well [5]. […] Bacteria were incubated for an additional 24 h in the absence and in the presence of different mannosides and the number of viable bacteria was assessed by CFU/mL counting. […] Since carbohydrates can influence the activity of conventional antibiotics, the activity of different classes of antibiotics such as ampicillin (AMP 30 μg/mL), streptomycin (SM 50 µg/mL), and gentamycin (GM 50 µg/mL) in the presence of the synthetic mannoside analogs was evaluated.
Mannosides dissolved in dimethyl sulfoxide DMSO or water at a final concentration of 5 mM were prepared. […] Readings of culture turbidity (OD600) were determined using a plate reader (POLARstar Omega BMG Labtech plate reader, Germany). […]

| Structure (SMILES) | efficiency at reducing FimH-mediated bacterial adherence (result in words) [1] | IC50 [2] | RIP (relative inhibitory potency) [2] | Kd (E. coli FimH) | lower concentration than natural D-mannose for same extent of bacterial adhesion inhibition ([1]; compared with natural D-mannose) | number of viable bacteria (CFU/mL) compared to non-treated control (UPEC strain CFT073) |
| --- | --- | --- | --- | --- | --- | --- |
| OC[C@H]1O[C@H](C/C=C/c2ccc3ncccc3c2)[C@@H](O)[C@@H](O)[C@@H]1O [Compound 11] | most efficient; also recorded: better potency in inhibiting bacterial adhesion | 3.17 ± 2.3 nM | 887 | – | – | – |
| OC[C@H]1O[C@H](C/C=C/c2ccc(-c3ccccc3)cc2)[C@@H](O)[C@@H](O)[C@@H]1O [Compound 18] | – | 30.3 ± 9 nM | 93 | 17 ± 3.5 nM | – | – |
| OC[C@H]1O[C@H](C/C=C/c2ccccc2-c2ccncc2)[C@@H](O)[C@@H](O)[C@@H]1O [Compound 20] | – | 0.82 ± 0.4 nM | 3428 | – | – | – |
| CCCCCCCO[C@H]1O[C@H](CO)[C@@H](O)[C@H](O)[C@@H]1O [Compound 21, heptyl α-D-mannopyranoside] | – | 19.4 ± 5.2 nM | 145 | – | – | – |
| O=[N+]([O-])c1ccc(O[C@H]2O[C@H](CO)[C@@H](O)[C@H](O)[C@@H]2O)cc1 [Compound 22, para-nitrophenyl α-D-mannopyranoside] | – | 74.1 nM | 38 | – | – | – |
| CO[C@H]1O[C@H](CO)[C@@H](O)[C@H](O)[C@@H]1O [Compound 23, methyl α-D-mannopyranoside] | less efficient | 2810 nM | 1 | – | 164 fold | – |
| OC[C@H]1OC(O)[C@@H](O)[C@@H](O)[C@@H]1O (stereo partly drawn) [D-mannose] | – | – | – | – | – | supports the growth; also recorded: increased significantly |

— article PMC9962304, “Insightful Improvement in the Design of Potent Uropathogenic E. coli FimH Antagonists” (Pharmaceutics, 2023)
